The values that follow come from ChEMBL document CHEMBL6134780, “Halogenated retinoid derivatives as dual RARα and RXRα modulators for treating acute promyelocytic leukemia cells” (Eur J Med Chem, 2024).

Active and inactive are the calls of the source. No cut-off for these calls is given here.

The subject of one assay is HEK293T. The assay is described as follows: Agonist activity at 3-Flag-tagged PML-RARalpha/HA-tagged RXRalpha (unknown origin) transfected in HEK293T cells co-transfected with pGL3-beta-RARE and Renilla-luc assessed as increase in transcriptional activity at 1 uM incubated for 12 hrs by luciferase reporter gene assay relative to ATRA. Type of assay: cell-based. The note with it: Homo sapiens, filed as agonist.

Assay [1] concerns NB-4. The assay is described as follows: Induction of DNA damage in human NB4 cells assessed as increase in gamma-H2AX expression at 2 uM by Western blot analysis. Format: functional, cell-based. A general note: Immunoblotting shows a protein as a band on a membrane.
In another assay the test system is ATRA-resistant NB4-LR2. Briefly: Induction of DNA damage in human ATRA-resistant NB4-LR2 cells assessed as increase in gamma-H2AX expression at 2 uM by Western blot analysis. Format: functional, cell-based.
Assay [2] has as its target T1, Retinoic acid receptor alpha (Homo sapiens, UniProt P10276).
T1 sequence (P10276 whole entry): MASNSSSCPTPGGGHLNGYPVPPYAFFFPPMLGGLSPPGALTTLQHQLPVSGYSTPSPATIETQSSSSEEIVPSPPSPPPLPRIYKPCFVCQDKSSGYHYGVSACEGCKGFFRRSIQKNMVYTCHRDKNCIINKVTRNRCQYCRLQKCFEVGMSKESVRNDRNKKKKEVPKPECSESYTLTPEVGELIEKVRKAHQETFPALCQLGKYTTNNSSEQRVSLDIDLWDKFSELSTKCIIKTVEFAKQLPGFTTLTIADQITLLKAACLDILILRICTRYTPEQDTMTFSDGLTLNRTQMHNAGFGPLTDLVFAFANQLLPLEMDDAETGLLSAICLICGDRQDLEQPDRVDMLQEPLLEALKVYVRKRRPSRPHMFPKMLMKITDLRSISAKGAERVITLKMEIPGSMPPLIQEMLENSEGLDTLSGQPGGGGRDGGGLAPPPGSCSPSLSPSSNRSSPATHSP
The assay is described as follows: Agonist activity at Gal4-fused full length human RARalpha LBD transfected in HEK293T cells co-transfected with pG5luc reporter and Renilla-luc assessed as transactivation incubated for 12 hrs by dual luciferase reporter gene assay. Type of assay: cell-based.

The subject of assay [3] is K562. The assay is described as follows: Effect on cell cycle population in human K562 cells at 0.5 uM by DAPI staining based flow cytometric analysis. Format: functional. (Flow cytometry measures light scatter and fluorescence of single cells or particles in a stream.)
The target of assay [4] is T1, Retinoic acid receptor alpha. Briefly: Binding affinity to N-terminal His-tagged human RARalpha LBD extracted from Escherichia coli BL21 (DE3) cells assessed as dissociation constant by fluorescence quenching assay.
The test system of assay [5] is NB-4. Briefly: Induction of cell differentiation in human NB4 cells assessed as NBT positive cells at 0.5 uM incubated for 6 days by Nitro Blue tetrazolium chloride based microscopic analysis (reference value: 0 %). Type of assay: functional. The following applies: time 6 day.
Assay [6] has as its target T2, Retinoic acid receptor RXR-beta (Homo sapiens) (UniProt P28702).
T2 sequence (whole entry): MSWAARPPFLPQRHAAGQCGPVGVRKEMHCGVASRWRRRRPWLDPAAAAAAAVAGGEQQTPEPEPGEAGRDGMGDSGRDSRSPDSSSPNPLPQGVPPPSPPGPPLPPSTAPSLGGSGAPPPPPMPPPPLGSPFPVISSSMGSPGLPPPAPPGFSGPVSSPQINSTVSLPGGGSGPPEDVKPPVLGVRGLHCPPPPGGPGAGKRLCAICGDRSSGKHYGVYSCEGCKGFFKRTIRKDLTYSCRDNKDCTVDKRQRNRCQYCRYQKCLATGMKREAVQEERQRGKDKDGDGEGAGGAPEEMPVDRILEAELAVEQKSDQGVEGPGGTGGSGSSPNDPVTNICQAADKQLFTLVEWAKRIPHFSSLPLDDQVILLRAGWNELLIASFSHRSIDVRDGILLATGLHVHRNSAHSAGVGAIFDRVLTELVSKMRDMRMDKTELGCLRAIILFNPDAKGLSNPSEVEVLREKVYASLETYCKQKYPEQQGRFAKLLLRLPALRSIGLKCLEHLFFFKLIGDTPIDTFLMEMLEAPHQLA
Briefly: Competitive binding affinity to Gal4-fused full length RXRbeta LBD (unknown origin) transfected in HEK293T cells co-transfected with pG5luc reporter and Renilla-luc assessed as inhibition of 9-cis-RA induced transactivation at 0.1 to 1 uM incubated for 12 hrs by luciferase reporter gene assay. Type of assay: cell-based. The note with it: dose 0.1-1 µM. Background: In a reporter assay the amount or activity of a reporter protein is the signal.

In assay [7] the test system is NB-4. The assay is described as follows: Induction of cell differentiation in human NB4 cells assessed as morphological changes at 0.5 uM incubated for 6 days by Wright-Giemsa staining based analysis. Type of assay: functional. The note with it: time 6.0 day.
Assay [8] has as its target Estrogen receptor (Homo sapiens) (UniProt P03372). The assay is described as follows: Agonist activity at Gal4-fused full length ERalpha LBD (unknown origin) transfected in HEK293T cells co-transfected with pG5luc reporter and Renilla-luc at 0.1 to 1 uM incubated for 12 hrs by luciferase reporter gene assay. Type of assay: cell-based. The note with it: dose 0.1-1 µM.
The subject of assay [9] is K562. The assay is described as follows: Induction of apoptosis in human K562 cells assessed as viable cells at 1 uM incubated for 24 hrs by Annexin V-FITC/PI staining based flow cytometric analysis (reference value: 90.02 %). Format: functional. The note with it: read-out: Activity.
A short description of assay [10]: Induction of apoptosis in human ATRA-resistant NB4-LR2 cells assessed as viable cells at 1 uM incubated for 24 hrs by Annexin V-FITC/PI staining based flow cytometric analysis (reference value: 87.30 %). Format: functional. The note with it: read-out: Activity.
Assay [11] concerns K562. Briefly: Induction of apoptosis in human K562 cells assessed as necrotic cells at 1 uM incubated for 24 hrs by Annexin V-FITC/PI staining based flow cytometric analysis (reference value: 2.19 %). Format: functional.
For assay [12], the system named is K562. Briefly: Induction of apoptosis in human K562 cells assessed as early apoptotic cells at 2 uM incubated for 24 hrs by Annexin V-FITC/PI staining based flow cytometric analysis (reference value: 0.91 %). Format: functional.
Assay [13] has as its system NB-4. Briefly: Induction of cell differentiation in human NB4 cells at 0.5 uM incubated for 4 to 6 days by CD11b staining based flow cytometric analysis. Type of assay: functional. The note with it: time 4-6 day.
The subject of assay [14] is K562. Briefly: Induction of apoptosis in human K562 cells assessed as late apoptotic cells at 2 uM incubated for 24 hrs by Annexin V-FITC/PI staining based flow cytometric analysis (reference value: 5.98 %). Format: functional.
In assay [15] the test system is K562. Briefly: Induction of apoptosis in human K562 cells assessed as late apoptotic cells at 1 uM incubated for 24 hrs by Annexin V-FITC/PI staining based flow cytometric analysis (reference value: 5.98 %). Type of assay: functional.
For assay [16], the system named is NB-4. The assay is described as follows: Cell cycle arrest in human NB4 cells assessed as increase in cyclin B1 expression at 2 uM incubated for 3 to 24 hrs by Western blot analysis. Type of assay: functional, cell-based. The following applies: time 3-24 hrs.
Assay [17] deals with NB-4. Briefly: Induction of apoptosis in human NB4 cells assessed as increase in cleaved-PARP expression at 2 uM incubated for 3 to 24 hrs by Western blot analysis. Type of assay: functional, cell-based. The following applies: time 3-24 hrs.
The subject of assay [18] is K562. The assay is described as follows: Induction of apoptosis in human K562 cells assessed as necrotic cells at 2 uM incubated for 24 hrs by Annexin V-FITC/PI staining based flow cytometric analysis (reference value: 2.19 %). Format: functional.

Estrogen receptor (Homo sapiens), sequence (P03372 whole entry, the tested form may be a part): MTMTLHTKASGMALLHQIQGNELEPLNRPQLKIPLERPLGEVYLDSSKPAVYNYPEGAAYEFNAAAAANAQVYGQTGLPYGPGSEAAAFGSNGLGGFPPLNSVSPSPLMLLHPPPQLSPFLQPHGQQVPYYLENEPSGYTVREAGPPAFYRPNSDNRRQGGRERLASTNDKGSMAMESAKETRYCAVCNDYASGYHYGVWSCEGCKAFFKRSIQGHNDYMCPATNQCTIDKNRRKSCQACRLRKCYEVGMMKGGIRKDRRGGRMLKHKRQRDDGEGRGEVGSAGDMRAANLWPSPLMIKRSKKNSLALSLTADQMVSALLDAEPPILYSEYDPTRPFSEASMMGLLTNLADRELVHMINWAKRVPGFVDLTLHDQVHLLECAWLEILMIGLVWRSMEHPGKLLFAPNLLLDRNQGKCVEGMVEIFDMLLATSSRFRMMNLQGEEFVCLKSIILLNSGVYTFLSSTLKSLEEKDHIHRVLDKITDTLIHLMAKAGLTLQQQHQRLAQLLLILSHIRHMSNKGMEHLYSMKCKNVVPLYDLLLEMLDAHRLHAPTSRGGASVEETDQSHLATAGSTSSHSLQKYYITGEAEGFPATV

Usually EC50 stands for the concentration giving half of the maximal effect. As a reminder, the Kd is the constant that tells how readily two partners part at equilibrium. Turning to `Cc1cc2c(cc1C(=O)/C(Br)=C/c1ccc(C(=O)O)cc1)C(C)(C)CCC2(C)C`, the Activity in the assay on HEK293T is > 70%; in the assay on NB-4 [1], “Active; Dna Damage Detected When Apoptosis Occurred”; with ATRA-resistant NB4-LR2, “Active; Dna Damage Detected When Apoptosis Occurred”; with NB-4 [5], 64%; in assay [6], “Weak_effect”; in [8], “Minimal_effect”. For the same compound, the Activity in the assay on K562 [11] is 2.27%; in the assay with K562 [12], 1.18%; in the assay on K562 [14], 7.92%; with K562 [15], 7.4%; in the assay with K562 [18], 2.27%. The EC50 in assay [2] stood at 424 nM. Further, the result with K562 [3] was inactive. For the same compound, in assay [4], the Kd is 433 nM. Moreover, the result in the assay on NB-4 [7], in the assay with NB-4 [13], in the assay on NB-4 [16] and in the assay with NB-4 [17] was Active. Besides, the viability at 1 µM was determined as 89.3% in the assay with K562 [9] and 56.2% in [10].
With `Cc1cc2c(cc1C(=O)/C(Br)=C\c1ccc(C(=O)O)cc1)C(C)(C)CCC2(C)C`, the Activity in the assay with HEK293T is > 70%; in the assay with NB-4 [1] it was “Active; Dna Damage Detected When Apoptosis Occurred”; with ATRA-resistant NB4-LR2, “Active; Dna Damage Detected When Apoptosis Occurred”; in the assay on NB-4 [5], 69%; in assay [6], “Weak_effect”; in assay [8], “Minimal_effect”. The Activity is on record as 2.02% with K562 [11]; 1.05% in the assay with K562 [12]; 7.14% in the assay with K562 [14]; 6.86% in the assay on K562 [15]; 3.03% in the assay with K562 [18]. Also, the EC50 in assay [2] came to 419 nM. For the same compound, in the assay on K562 [3], the outcome was inactive. The Kd in assay [4] came out at 553 nM. In addition, the outcome with NB-4 [7], in the assay on NB-4 [13], in the assay on NB-4 [16] and in the assay with NB-4 [17] was Active. For the same compound, the viability at 1 µM in the assay with K562 [9] is 90.4%; in assay [10], 67.8%.
